This is an account of results in US12624019B2, “Indazole derivative, and preparation method therefor and use thereof” (Leadingtac Pharmaceutical (Shaoxing) Co., Ltd., priority 2020, dated 2026).

SMILES strings stand for the structures.

One series deals with T1, IKZF3 (Homo sapiens, UniProt Q96SW2+Q9UKT9).
T1 construct: endogenous in cells; host or cells: L363 cells
Put plainly: Degradation of IKZF3 in L363 cells by Western blot. The class given is cell-based. Particulars: compound 1000 nM, 16 hours. How it is done:
(§1) The 24-well cell culture plate was inoculated with 0.95 mL L363 cells (Nanjing Co-bioer) per well with a cell density of 6×10^5 cells/well. The cell plate was placed in a 5% carbon dioxide incubator and cultured at 37° C. for 8 hours, then 50 μL of compound solution was added. The final concentration of the compound was 1000 nM. After continuing to culture for 16 hours, the cells were collected into a 1.5 mL centrifuge tube and centrifuged at 3000 rpm and 4° C. for 5 minutes. Cell precipitation was washed twice with 1×DPBS, resuspended cells were lysed with 100 μL lysate (cell lysate was Western and IP cell lysate (Beyotime), supplemented with 1 mM mixture of phenylmethylsulfonyl fluoride and protease inhibitor (Beyotime)), left on ice for 30 minutes, then centrifuged at 14000 g at 4° C. for 10 minutes, and the supernatant was taken to detect IKZF1 and IKZF3 protein level by Western blot.
(§2) The total protein concentration in the supernatant of cell lysis was determined by BCA protein quantitative kit (Tiangen). According to the concentration of total protein detected by BCA, the supernatant was adjusted to […] with PBS and 5×SDS-PAGE protein loading buffer (Beyotime), bathed in water at 100° C. for 10 minutes, then placed in ice bath for 5 minutes, centrifuged at 14000 g and 4° C. for 5 minutes, and then collected as WB loading sample. Prefabricated glue (KeyGEN) was used for protein electrophoresis with a loading amount of 10 μL (total protein 2 μg). After Tris-MOPS-SDS electrophoresis solution (Adamas), 120V constant pressure electrophoresis was performed. After electrophoresis, the protein on the adhesive strip was transferred to PVDF membrane with a constant current of […] for 50 minutes. After the membrane was transferred, the membrane was incubated in 5% bovine serum albumin solution for 2 hours at room temperature. After blocking, PVDF membranes were incubated with IKZF1 primary antibody (CST) and IKZF3 primary antibody (Abcam) overnight at 4°, the membranes were washed with TBST buffer (2.4 g Tris, 8.8 g NaCl, 1.5 mL Tween 20, pH adjusted to 7.4, constant volume to 1 L) for 30 minutes, incubated with secondary antibody (Abcam) for 2 hours at room temperature, finally incubated with Clarity Western ECL Substrate (BIO-RAD) for 5 minutes for luminescence development, chemiluminescence imaging system (Clinx, chemiScope 6200 Touch) was used for development and protein mapping photography. The protein map was analyzed by Clinx chemiluminescence analysis software for grayscale values. Using the formula: grayscale correction value=(target protein grayscale value/corresponding internal reference grayscale value)×10^3, the grayscale correction value of each sample was calculated. The degradation rate was calculated by comparing with the grayscale correction value of the control group.
In general terms: A western blot detects proteins with antibodies after separation by electrophoresis.

The target in another series is T2, IKZF1 (Homo sapiens, UniProt Q13422+Q96SW2).
T2 construct: endogenous in cells; host or cells: L363 cells
Put plainly: Degradation of IKZF1 in L363 cells by Western blot. The class given is cell-based. Particulars: compound 1000 nM, 16 hours. How it is done:
as §1, §2

Series [1] can be described thus: Pharmacokinetic study in mice. The class given is in vivo, SD mice. The protocol:
The following experimental scheme was used to study the pharmacokinetic behavior of the compound of the present invention in mice and evaluate its pharmacokinetic characteristics.
Experimental scheme: 3 healthy SD mice, male, weighing […], were given 100 mg/kg compound by gavage with a volume of 10 mL/kg, prepared with […] (w/v). Before the test, they were fasted for 12 hours and freely drank water. Food was uniformly consumed 4 h after administration.
Three healthy SD mice, male, weighing […], were given 1 mg/kg compound intravenously with a volume of 5 mL/kg, prepared with 5% DMSO/15% solutol %80% PBS (w/v). Before the test, they were fasted for 12 hours and freely drank water. Food was uniformly consumed 4 h after administration.
0.1 mL of venous blood was taken through the submaxillary venous plexus of mice at 0.08 h, 0.25 h, 0.5 h, 1 h, 2 h, 4 h, 8 h, 24 h after gavage administration and 0.08 h, 0.25 h, 0.5 h, 1 h, 2 h, 4 h, 8 h, 24 h after intravenous administration, placed in a heparin test tube, centrifuged at 11000 rpm for 5 min, and plasma was separated, the concentration of compounds in plasma was determined by liquid chromatography-tandem mass spectrometry.

Setting [2] is: male, SD, mouse, po, gavage administration 100 mg/kg, plasma.

T2 sequence (Q13422 whole entry): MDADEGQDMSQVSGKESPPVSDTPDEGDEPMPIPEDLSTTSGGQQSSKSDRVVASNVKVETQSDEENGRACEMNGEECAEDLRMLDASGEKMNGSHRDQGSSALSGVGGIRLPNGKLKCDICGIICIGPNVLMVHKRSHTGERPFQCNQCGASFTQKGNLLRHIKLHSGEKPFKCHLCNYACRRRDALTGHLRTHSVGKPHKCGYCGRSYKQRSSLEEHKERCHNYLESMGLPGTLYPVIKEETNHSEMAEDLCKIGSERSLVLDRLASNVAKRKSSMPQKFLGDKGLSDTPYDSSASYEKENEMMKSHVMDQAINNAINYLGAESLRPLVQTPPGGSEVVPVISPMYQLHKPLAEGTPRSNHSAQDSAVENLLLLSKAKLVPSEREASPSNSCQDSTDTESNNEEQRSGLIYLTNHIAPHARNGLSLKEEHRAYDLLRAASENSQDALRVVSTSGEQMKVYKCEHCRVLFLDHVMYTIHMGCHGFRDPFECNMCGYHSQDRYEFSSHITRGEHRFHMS
T2 sequence (Q96SW2 whole entry): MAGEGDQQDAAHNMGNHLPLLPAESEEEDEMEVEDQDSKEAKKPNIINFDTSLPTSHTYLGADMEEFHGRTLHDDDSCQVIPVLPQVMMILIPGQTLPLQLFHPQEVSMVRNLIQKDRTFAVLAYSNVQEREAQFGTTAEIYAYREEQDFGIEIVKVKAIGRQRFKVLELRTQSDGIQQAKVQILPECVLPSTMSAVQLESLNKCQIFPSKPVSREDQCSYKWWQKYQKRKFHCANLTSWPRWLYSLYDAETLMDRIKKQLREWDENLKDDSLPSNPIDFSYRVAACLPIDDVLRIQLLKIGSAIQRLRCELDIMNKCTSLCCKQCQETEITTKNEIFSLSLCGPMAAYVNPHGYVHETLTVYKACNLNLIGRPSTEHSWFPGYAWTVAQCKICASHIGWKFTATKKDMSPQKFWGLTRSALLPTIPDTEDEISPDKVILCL
T2 sequence (Q16531 whole entry partner): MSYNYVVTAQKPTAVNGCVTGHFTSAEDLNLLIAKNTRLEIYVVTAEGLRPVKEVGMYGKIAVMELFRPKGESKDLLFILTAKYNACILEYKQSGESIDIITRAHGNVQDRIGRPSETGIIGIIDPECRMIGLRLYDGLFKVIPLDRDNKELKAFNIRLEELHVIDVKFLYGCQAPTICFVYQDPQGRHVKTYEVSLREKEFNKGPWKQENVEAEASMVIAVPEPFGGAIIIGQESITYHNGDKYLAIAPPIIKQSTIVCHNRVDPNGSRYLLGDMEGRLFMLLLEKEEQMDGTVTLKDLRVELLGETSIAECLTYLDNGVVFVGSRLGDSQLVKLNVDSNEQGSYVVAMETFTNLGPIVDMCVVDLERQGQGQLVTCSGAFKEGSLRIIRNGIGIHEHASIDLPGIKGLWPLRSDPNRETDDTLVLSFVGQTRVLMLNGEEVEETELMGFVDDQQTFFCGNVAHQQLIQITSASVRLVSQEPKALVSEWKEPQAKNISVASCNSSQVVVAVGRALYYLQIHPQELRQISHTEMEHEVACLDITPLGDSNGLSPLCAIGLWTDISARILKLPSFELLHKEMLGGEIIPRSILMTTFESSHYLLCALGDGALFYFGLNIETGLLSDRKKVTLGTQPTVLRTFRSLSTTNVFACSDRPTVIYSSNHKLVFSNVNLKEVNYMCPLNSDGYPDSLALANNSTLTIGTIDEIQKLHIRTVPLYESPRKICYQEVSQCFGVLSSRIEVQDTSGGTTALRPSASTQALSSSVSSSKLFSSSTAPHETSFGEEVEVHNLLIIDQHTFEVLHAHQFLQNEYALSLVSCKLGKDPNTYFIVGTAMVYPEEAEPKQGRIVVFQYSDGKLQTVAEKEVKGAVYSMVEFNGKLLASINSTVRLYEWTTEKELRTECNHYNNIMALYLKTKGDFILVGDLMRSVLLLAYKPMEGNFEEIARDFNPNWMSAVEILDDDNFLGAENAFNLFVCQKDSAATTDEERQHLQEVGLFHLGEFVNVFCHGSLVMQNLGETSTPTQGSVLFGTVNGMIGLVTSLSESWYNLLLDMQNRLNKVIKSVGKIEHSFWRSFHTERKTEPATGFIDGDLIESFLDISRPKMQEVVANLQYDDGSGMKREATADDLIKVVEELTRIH
T1 sequence (Q9UKT9 whole entry): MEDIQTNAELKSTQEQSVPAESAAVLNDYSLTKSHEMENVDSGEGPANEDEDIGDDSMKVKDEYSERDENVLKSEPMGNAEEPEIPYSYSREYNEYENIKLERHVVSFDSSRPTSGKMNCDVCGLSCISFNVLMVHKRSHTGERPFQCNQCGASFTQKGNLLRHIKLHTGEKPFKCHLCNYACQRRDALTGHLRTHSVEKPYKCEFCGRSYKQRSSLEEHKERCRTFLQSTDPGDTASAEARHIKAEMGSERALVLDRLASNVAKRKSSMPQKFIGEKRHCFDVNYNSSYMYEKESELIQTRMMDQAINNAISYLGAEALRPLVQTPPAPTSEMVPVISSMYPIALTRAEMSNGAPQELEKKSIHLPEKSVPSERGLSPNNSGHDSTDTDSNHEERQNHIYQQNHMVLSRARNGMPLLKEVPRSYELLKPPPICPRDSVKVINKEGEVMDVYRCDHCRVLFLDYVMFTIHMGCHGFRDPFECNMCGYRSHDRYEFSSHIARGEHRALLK
T1 sequence (Q96SW2 whole entry): as the sequence (Q96SW2 whole entry) above
T1 sequence (Q16531 whole entry partner): as the sequence (Q16531 whole entry partner) above

What is called AUC(0-t) is the area under the concentration-time curve up to a stated or last time point. Lower therefore signals low exposure. One may read the bioavailability as the share of a dose that reaches the circulation, judged against a reference dose that is usually intravenous. The low end stands for little systemic uptake, the high end for much systemic uptake. The Cmax is the peak of the concentration-time curve. As to `CC(C)(O)c1cc2nn(C3CCN(CCCC4CCN(c5ccc6c(c5)C(=O)N(C5CCC(=O)NC5=O)C6=O)CC4)CC3)cc2cc1NC(=O)c1cccc(C(F)(F)F)n1` (centres unmarked) [Example 6, N-(2-(1-(3-(1-(2-(2,6-dioxopiperidin-3-yl)-1,3-dioxoisoindolin-5-yl)piperidin-4-yl)propyl)piperidin-4-yl)-6-(2-hydroxyprop-2-yl)-2H-indazol-5-yl)-6-(trifluoromethyl) pyridinecarboxamide], the “IKZF3 degradation rate (%)” value at IKZF3 turned out to be 8.4 ± 6.0%. For the same molecule, the “IKZF1 degradation rate (%)” value at IKZF1 was found to be 26.7 ± 2.4%. For the same molecule, in series [1] (intravenous injection 1 mg/kg), the CL_pred is 6.7 mL/min/kg and the Vss_pred is recorded as 4.6 L/kg. Further, the AUC(0-t) in series [1] (male, SD, mouse, intravenous injection 1 mg/kg, plasma) is 2150 ng·h/mL. In series [1] (male, SD, mouse, plasma, po, gavage 100 mg/kg vs intravenous 1 mg/kg), the bioavailability is 14.2%. In series [1] (setting [2]), the AUC(0-t) was 30500 ng·h/mL and the Cmax was found to be 1860 ng/mL.
